Assays:
[1] = target: T1, Lipolase (Thermomyces lanuginosus, UniProt O59952); test: storage stability of lipase (Lipolase activity, pNitrophenol-valerate substrate) in liquid formulations at 37° C.; type: biochemical, Thermomyces lanuginosa; conditions: Lipolase 0.4 wt %, storage at 37° C.
T1 construct: purchased Sigma-Aldrich
T1 sequence (O59952 23-291): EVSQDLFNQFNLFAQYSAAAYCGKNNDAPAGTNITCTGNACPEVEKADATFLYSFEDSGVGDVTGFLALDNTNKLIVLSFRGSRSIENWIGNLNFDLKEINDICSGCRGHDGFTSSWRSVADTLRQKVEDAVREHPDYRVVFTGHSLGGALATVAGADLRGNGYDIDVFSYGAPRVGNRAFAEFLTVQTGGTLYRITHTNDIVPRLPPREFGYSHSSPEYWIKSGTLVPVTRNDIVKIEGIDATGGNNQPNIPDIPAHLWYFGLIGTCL
Protocol: (§1) The storage stability of Lipase and Protease in water was assessed at 37° C.
(§2) Base test formulations were manufactured by making base formulations I to VI by mixing the components according to Table 1.
(§3) The respective salt (component (a)) or comparative compound was added, if applicable, to the respective base formulation in amounts as indicated in Table 1.
(§4) The amount of enzyme as provided in Table 1 refers to active protein. Either lipase or protease was added, depending on which enzyme activity was measured.
(§5) Lipolase® 100 L (CAS-No. 9001-62-1, EC-No. 232-619-9) was purchased from Sigma-Aldrich. Savinase® 16.0 L (CAS-No. 9014-01-1, EC-No. 232-752-2) was purchased from Sigma-Aldrich.
Lipolase activity at certain points in time as indicated in Table 2 was be determined by employing pNitrophenol-valerate (2.4 mM pNP-C5 in 100 mM Tris pH 8.0, 0.01% Triton X100) as a substrate. The absorption was measured at 20° C. every 30 seconds over 5 minutes at 405 nm. The slope (absorbance increase at 405 nm per minute) of the time dependent absorption-curve is directly proportional to the activity of the lipase.
The lipolytic activity values provided in Table 2 were calculated referring to the 100% value determined in the reference formulation at the time 0.
(§6) The nomenclature of formulations is as follows: the Roman number before the full stop characterizes the base formulation, the Arabian number the type of salt (A.# inventive salt (component (a)); C-(A.#) comparative compound). Zero (“0”): no salt, but diethylene glycol.

[2] = target: T2, Savinase (Lederbergia lenta, UniProt P29600); test: storage stability of protease (Savinase activity, Suc-AAPF-pNA substrate) in liquid formulations at 37° C.; type: biochemical; conditions: Savinase 16.0 L 0.5 wt %, storage at 37° C.
T2 construct: purchased Sigma-Aldrich
T2 sequence (P29600 1-269): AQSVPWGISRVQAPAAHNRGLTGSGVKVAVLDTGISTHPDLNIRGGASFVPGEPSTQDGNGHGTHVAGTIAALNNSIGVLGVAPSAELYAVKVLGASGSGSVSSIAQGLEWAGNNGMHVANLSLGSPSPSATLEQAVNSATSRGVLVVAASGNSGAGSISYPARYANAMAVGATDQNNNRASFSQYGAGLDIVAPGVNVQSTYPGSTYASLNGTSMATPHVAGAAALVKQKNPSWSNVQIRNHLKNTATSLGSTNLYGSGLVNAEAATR
Protocol: as §1, §2, §3, §4, §5
Savinase activity at certain points in time as indicated in Table 3 was be determined by employing Succinyl-Ala-Ala-Pro-Phe-p-nitroanilide (Suc-AAPF-pNA, short AAPF) as substrate. pNA is cleaved from the substrate molecule by proteolytic cleavage, resulting in release of yellow color of free pNA which was determined by measuring OD405. Measurement were done at 20° C.
The proteolytic activity values provided in Table 3 were calculated referring to the 100% value determined in the reference formulation at the time 0.
as §6

[3] = base formulation I., component (a) 2.5 wt %, 1 d
[4] = base formulation I., component (a) 2.5 wt %, 3 d
[5] = base formulation I., component (a) 2.5 wt %, 6 d
[6] = base formulation I., component (a) 2.5 wt %, 10 d
[7] = base formulation I., component (a) 2.5 wt %, 15 d
[8] = base formulation I., component (a) 2.5 wt %, 20 d
[9] = base formulation I., component (a) 2.5 wt %, 25 d
[10] = base formulation I., component (a) 2.5 wt %, 30 d
[11] = base formulation I., component (a) 2.5 wt %, T0
[12] = base formulation IV., component (a) 4.0 wt %, 1 d
[13] = base formulation IV., component (a) 4.0 wt %, 3 d
[14] = base formulation IV., component (a) 4.0 wt %, 6 d
[15] = base formulation IV., component (a) 4.0 wt %, 10 d
[16] = base formulation IV., component (a) 4.0 wt %, 15 d
[17] = base formulation IV., component (a) 4.0 wt %, 20 d
[18] = base formulation IV., component (a) 4.0 wt %, 25 d
[19] = base formulation IV., component (a) 4.0 wt %, 30 d
[20] = base formulation V., component (a) 4.0 wt %, 1 d
[21] = base formulation V., component (a) 4.0 wt %, 3 d
[22] = base formulation V., component (a) 4.0 wt %, 6 d
[23] = base formulation V., component (a) 4.0 wt %, 10 d
[24] = base formulation V., component (a) 4.0 wt %, 15 d
[25] = base formulation V., component (a) 4.0 wt %, 20 d
[26] = base formulation V., component (a) 4.0 wt %, 25 d
[27] = base formulation V., component (a) 4.0 wt %, 30 d

C[N+](C)(C)CCO.C[N+](C)(C)CCO.O=C([O-])C(O)C(O)C(=O)[O-] (centres unmarked) [C-(A.16)]
lipase activity [1, 3]: 90% | lipase activity [1, 4]: 81% | lipase activity [1, 5]: 68% | lipase activity [1, 6]: 51% | lipase activity [1, 7]: 40% | lipase activity [1, 8]: 34% | lipase activity [1, 9]: 25% | lipase activity [1, 10]: 24% | lipase activity [1, 11]: 95% | lipase activity [1, 12]: 90% | lipase activity [1, 13]: 81% | lipase activity [1, 14]: 67% | lipase activity [1, 15]: 55% | lipase activity [1, 16]: 41% | lipase activity [1, 17]: 34% | lipase activity [1, 18]: 28% | lipase activity [1, 19]: 25% | lipase activity ([1]; base formulation IV., component (a) 4.0 wt %, T0): 95% | lipase activity [1, 20]: 92% | lipase activity [1, 21]: 85% | lipase activity [1, 22]: 70% | lipase activity [1, 23]: 65% | lipase activity [1, 24]: 58% | lipase activity [1, 25]: 49% | lipase activity [1, 26]: 37% | lipase activity [1, 27]: 28% | lipase activity ([1]; base formulation V., component (a) 4.0 wt %, T0): 96% | protease activity [2, 3]: 91% | protease activity [2, 4]: 84% | protease activity [2, 5]: 66% | protease activity [2, 6]: 49% | protease activity [2, 7]: 38% | protease activity [2, 8]: 30% | protease activity [2, 9]: 23% | protease activity [2, 10]: 10% | protease activity [2, 11]: 98%

C[N+](C)(C)CCO.[Cl-] [C-(A.15), Choline chloride]
lipase activity [1, 3]: 95% | lipase activity [1, 4]: 80% | lipase activity [1, 5]: 67% | lipase activity [1, 6]: 55% | lipase activity [1, 7]: 41% | lipase activity [1, 8]: 32% | lipase activity [1, 9]: 22% | lipase activity [1, 10]: 20% | lipase activity ([1]; base formulation II., component (a) 2.5 wt %, 1 d): 95% | lipase activity ([1]; base formulation II., component (a) 2.5 wt %, 3 d): 82% | lipase activity ([1]; base formulation II., component (a) 2.5 wt %, 6 d): 65% | lipase activity ([1]; base formulation II., component (a) 2.5 wt %, 10 d): 56% | lipase activity ([1]; base formulation II., component (a) 2.5 wt %, 15 d): 40% | lipase activity ([1]; base formulation II., component (a) 2.5 wt %, 20 d): 33% | lipase activity ([1]; base formulation II., component (a) 2.5 wt %, 25 d): 26% | lipase activity ([1]; base formulation II., component (a) 2.5 wt %, 30 d): 22% | lipase activity [1, 12]: 95% | lipase activity [1, 13]: 82% | lipase activity [1, 14]: 72% | lipase activity [1, 15]: 59% | lipase activity [1, 16]: 44% | lipase activity [1, 17]: 36% | lipase activity [1, 18]: 30% | lipase activity [1, 19]: 23% | lipase activity [1, 20]: 95% | lipase activity [1, 21]: 86% | lipase activity [1, 22]: 74% | lipase activity [1, 23]: 63% | lipase activity [1, 24]: 54% | lipase activity [1, 25]: 41% | lipase activity [1, 26]: 39% | lipase activity [1, 27]: 30% | protease activity [2, 3]: 92% | protease activity [2, 4]: 85% | protease activity [2, 5]: 64% | protease activity [2, 6]: 47% | protease activity [2, 7]: 39% | protease activity [2, 8]: 31% | protease activity [2, 9]: 22% | protease activity [2, 10]: 8% | protease activity [2, 11]: 98% | protease activity ([2]; base formulation VI., component (a) 4.0 wt %, 1 d): 90% | protease activity ([2]; base formulation VI., component (a) 4.0 wt %, 3 d): 84% | protease activity ([2]; base formulation VI., component (a) 4.0 wt %, 6 d): 66% | protease activity ([2]; base formulation VI., component (a) 4.0 wt %, 10 d): 47% | protease activity ([2]; base formulation VI., component (a) 4.0 wt %, 15 d): 36% | protease activity ([2]; base formulation VI., component (a) 4.0 wt %, 20 d): 29% | protease activity ([2]; base formulation VI., component (a) 4.0 wt %, 25 d): 20% | protease activity ([2]; base formulation VI., component (a) 4.0 wt %, 30 d): 10% | protease activity ([2]; base formulation VI., component (a) 4.0 wt %, T0): 85%

Source: patent publication US11512268B2, “Storage-stable enzyme preparations, their production and use” (BASF SE, priority 2017, dated 2022)
